The subject of the first assay is TPR-Met/NIH3T3 cells. As to the kind of experiment: In-vivo tests: tumour volume, TPR-Met/NIH3T3 cells injected subcutaneously in Balb/C mice. Conditions: female Balb/C mice, s.c. TPR-Met/NIH3T3 tumour, 200 mg/kg daily by gastric tube, 9 days. On the procedure: They were acclimatised to our keeping conditions for 7 days. Each mouse was subsequently injected subcutaneously in the pelvic area with 4 million TPR-Met/NIH3T3 cells in 100 μl of PBS (without Ca++ and Mg++).
Turning to `CN1CCN(c2cnc(-c3cccc(Cn4nc(-c5cc(F)cc(F)c5)ccc4=O)c3)nc2)CC1` [A18, 6-(3,5-difluorophenyl)-2-{3-[5-(4-methylpiperazin-1-yl)pyrimidin-2-yl]-benzyl}-2H-pyridazin-3-one], the “antitumoural action (tumour volume)” value was “significant antitumoural action”.

The target in a further assay is T1, Met kinase (Homo sapiens, UniProt P08581). As to the kind of experiment: Met kinase inhibition, cell assay. It is filed as cell-based.
Conditions: not given
Target sequence in this assay (P08581 25-1390): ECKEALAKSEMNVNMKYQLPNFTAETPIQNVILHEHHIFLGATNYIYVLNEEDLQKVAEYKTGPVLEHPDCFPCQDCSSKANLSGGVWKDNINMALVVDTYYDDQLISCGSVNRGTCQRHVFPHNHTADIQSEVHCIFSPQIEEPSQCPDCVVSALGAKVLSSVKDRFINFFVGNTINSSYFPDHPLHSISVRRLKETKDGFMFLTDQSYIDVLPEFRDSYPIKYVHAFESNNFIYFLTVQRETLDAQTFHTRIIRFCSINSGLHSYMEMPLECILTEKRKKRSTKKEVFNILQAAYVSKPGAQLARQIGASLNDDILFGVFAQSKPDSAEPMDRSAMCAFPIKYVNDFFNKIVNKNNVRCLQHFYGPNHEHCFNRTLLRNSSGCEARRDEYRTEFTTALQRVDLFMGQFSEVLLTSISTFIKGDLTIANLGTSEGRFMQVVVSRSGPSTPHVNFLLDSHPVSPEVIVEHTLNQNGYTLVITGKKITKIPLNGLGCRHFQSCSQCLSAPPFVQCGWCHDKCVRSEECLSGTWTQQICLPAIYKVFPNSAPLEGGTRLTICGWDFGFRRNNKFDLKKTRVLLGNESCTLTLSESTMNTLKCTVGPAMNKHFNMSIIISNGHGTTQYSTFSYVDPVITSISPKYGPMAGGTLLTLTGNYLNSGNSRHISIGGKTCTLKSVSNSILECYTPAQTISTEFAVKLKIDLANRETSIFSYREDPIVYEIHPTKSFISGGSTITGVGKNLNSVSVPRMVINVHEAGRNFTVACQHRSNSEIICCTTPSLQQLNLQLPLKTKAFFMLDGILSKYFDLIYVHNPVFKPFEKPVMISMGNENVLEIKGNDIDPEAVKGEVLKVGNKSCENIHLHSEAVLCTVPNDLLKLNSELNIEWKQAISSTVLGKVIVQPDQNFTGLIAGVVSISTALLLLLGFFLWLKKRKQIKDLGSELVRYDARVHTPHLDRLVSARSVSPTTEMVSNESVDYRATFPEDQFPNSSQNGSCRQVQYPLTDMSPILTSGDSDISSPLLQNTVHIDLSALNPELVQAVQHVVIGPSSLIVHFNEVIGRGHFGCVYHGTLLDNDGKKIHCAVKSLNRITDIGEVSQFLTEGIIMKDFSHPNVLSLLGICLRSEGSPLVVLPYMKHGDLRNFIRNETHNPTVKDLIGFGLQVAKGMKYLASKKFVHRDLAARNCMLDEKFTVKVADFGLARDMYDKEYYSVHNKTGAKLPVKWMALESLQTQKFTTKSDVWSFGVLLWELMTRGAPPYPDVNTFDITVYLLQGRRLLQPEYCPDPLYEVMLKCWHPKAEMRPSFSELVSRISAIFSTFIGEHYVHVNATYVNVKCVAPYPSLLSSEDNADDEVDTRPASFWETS
For `CN1CCN(CCOc2cnc(-c3cccc(Cn4nc(-c5cc(F)cc(F)c5)ccc4=O)c3)nc2)CC1` [A57], the IC50 lay within 0.001 to 1 µM.

For `O=c1ccc(-c2cc(F)cc(F)c2)nn1Cc1cccc(-c2ncc(-c3cnn(C4CCNCC4)c3)cn2)c1` [A63], the IC50 fell in the range of 0.001 to 1 µM.

As to `CN1CCC(Oc2cnc(-c3cccc(Cn4nc(-c5cnn(C)c5)ccc4=O)c3)nc2)CC1` [A226, 2-{3-[5-(1-methylpiperidin-4-yloxy)pyrimidin-2-yl]-benzyl}-6-(1-methyl-1H-pyrazol-4-yl)-2H-pyridazin-3-one], the IC50 fell in the range of 0.001 to 1 µM. Turning to `Cc1cnc(-c2cccc(Cn3nc(-c4ccc5nsnc5c4)ccc3=O)c2)nc1` [A79], the IC50 was 0.001 to 1 µM. On to `O=c1ccc(-c2cc(F)cc(F)c2)nn1Cc1cccc(-c2ncc(Br)cn2)c1` [A25, 2-[3-(5-bromopyrimidin-2-yl)benzyl]-6-(3,5-difluorophenyl)-2H-pyridazin-3-one], for which the IC50 fell in the range of 0.001 to 1 µM.

For `Cn1cc(-c2ccc(=O)n(Cc3cccc(-c4ncc(-c5cnn(CCN6CCCC6)c5)cn4)c3)n2)cn1` [A169], the IC50 was 0.001 to 1 µM. On the same count and under the same terms, for `CN1CCC(Oc2cnc(-c3cccc(Cn4nc(-c5cc(F)cc(F)c5)ccc4=O)c3)nc2)CC1` [A23, 6-(3,5-difluorophenyl)-2-{3-[5-(1-methylpiperidin-4-yloxy)pyrimidin-2-yl]benzyl}-2H-pyridazin-3-one] the value was 0.001 to 1 µM; for `Cn1cc(-c2cnc(-c3cccc(Cn4nc(-c5cc(F)cc(F)c5)ccc4=O)c3)nc2)cn1` [A26, 6-(3,5-difluorophenyl)-2-{3-[5-(1-methyl-1H-pyrazol-4-yl)pyrimidin-2-yl]benzyl}-2H-pyridazin-3-one], 0.001 to 1 µM. `O=c1ccc(-c2cc(F)cc(F)c2)nn1Cc1cccc(-c2nccc(N3CCNCC3)n2)c1` [A13, 6-(3,5-difluorophenyl)-2-[3-(4-piperazin-1-ylpyrimidin-2-yl)benzyl]-2H-pyridazin-3-one] yielded an IC50 of 1 to 10 µM. On the same count and under the same terms, for `CN(C)C=Nc1cnc(-c2cccc(Cn3nc(-c4cc(F)cc(F)c4)ccc3=O)c2)nc1` [A16, N′-(2-{3-[3-(3,5-difluorophenyl)-6-oxo-6H-pyridazin-1-ylmethyl]phenyl}-pyrimidin-5-yl)-N,N-dimethylformamidine] the value was 0.001 to 1 µM. Same read-out and setting: the value for `CN1CCC(COc2cnc(-c3cccc(Cn4nc(-c5cc(F)cc(F)c5)ccc4=O)c3)nc2)CC1` [A66] was 0.001 to 1 µM; that for `CN1CCC(COc2cnc(-c3cccc(Cn4nc(-c5cnn(C)c5)ccc4=O)c3)nc2)CC1` [A237, 2-{3-[5-(1-methylpiperidin-4-ylmethoxy)pyrimidin-2-yl]-benzyl}-6-(1-methyl-1H-pyrazol-4-yl)-2H-pyridazin-3-one] was 0.001 to 1 µM. Still for that read-out and setting: for `CN1CCN(Cc2cnc(-c3cccc(Cn4nc(-c5cc(F)cc(F)c5)ccc4=O)c3)nc2)CC1` [A14, 6-(3,5-difluorophenyl)-2-{3-[5-(4-methylpiperazin-1-yl-methyl)pyrimidin-2-yl]benzyl}-2H-pyridazin-3-one] the value was 0.001 to 1 µM. For `Cc1cnc(-c2cccc(Cn3nc(-c4cc(F)c(F)c(F)c4)ccc3=O)c2)nc1` [A1, 2-[3-(5-methylpyrimidin-2-yl)benzyl]-6-(3,4,5-trifluorophenyl)-2H-pyridazin-3-one], the IC50 is 0.001 to 1 µM.

In turn, `N#Cc1cccc(-c2ccc(=O)n(Cc3cccc(-c4ncc(N5CCNCC5)cn4)c3)n2)c1` [A288, 3-{6-oxo-1-[3-(5-piperazin-1-ylpyrimidin-2-yl)benzyl]-1,6-dihydropyridazin-3-yl}benzonitrile] yielded an IC50 of 0.001 to 1 µM. Same read-out and setting: for `CN(C)CCCOc1cnc(-c2cccc(Cn3nc(-c4cnn(C)c4)ccc3=O)c2)nc1` [A209, 2-{3-[5-(3-dimethylaminopropoxy)pyrimidin-2-yl]-benzyl}-6-(1-methyl-1H-pyrazol-4-yl)-2H-pyridazin-3-one] the value was 0.001 to 1 µM.

The molecule `CN1CCN(c2cnc(-c3cccc(Cn4nc(-c5cc(F)c(F)c(F)c5)ccc4=O)c3)nc2)CC1` [A20, 2-{3-[5-(4-methylpiperazin-1-yl)pyrimidin-2-yl]benzyl}-6-(3,4,5-trifluorophenyl)-2H-pyridazin-3-one] displayed a 50% inhibitory concentration (IC50) of 0.001 to 1 µM.

In the case of `Nc1cnc(-c2cccc(Cn3nc(-c4cc(F)cc(F)c4)ccc3=O)c2)nc1` [A17, 2-[3-(5-aminopyrimidin-2-yl)benzyl]-6-(3,5-difluorophenyl)-2H-pyridazin-3-one], the IC50 fell in the range of 0.001 to 1 µM. On the same count and under the same terms, for `CN1CCN(c2cnc(-c3cccc(Cn4nc(-c5cccc(C#N)c5)ccc4=O)c3)nc2)CC1` [A287, 3-(1-{3-[5-(4-methylpiperazin-1-yl)pyrimidin-2-yl]benzyl}-6-oxo-1,6-dihydropyridazin-3-yl)benzonitrile] the value was 0.001 to 1 µM; for `CN(C)CCOc1cnc(-c2cccc(Cn3nc(-c4cc(F)cc(F)c4)ccc3=O)c2)nc1` [A64, 2-{3-[5-(2-dimethylaminoethoxy)pyrimidin-2-yl]benzyl}-6-(3,5-difluorophenyl)-2H-pyridazin-3-one], 0.001 to 1 µM. Same read-out and setting: the value for `O=c1ccc(-c2cc(F)cc(F)c2)nn1Cc1cccc(-c2ncc(OC3CCNCC3)cn2)c1` [A102, 6-(3,5-difluorophenyl)-2-{3-[5-(piperidin-4-yloxy)pyrimidin-2-yl]benzyl}-2H-pyridazin-3-one] was 0.001 to 1 µM; that for `Cc1cnc(-c2cccc(Cn3nc(-c4cccc(C#N)c4)ccc3=O)c2)nc1` [A15, 3-{1-[3-(5-methylpyrimidin-2-yl)benzyl]-6-oxo-1,6-dihydropyridazin-3-yl}benzonitrile] was 0.001 to 1 µM. `O=c1ccc(-c2cc(F)cc(F)c2)nn1Cc1cccc(-c2ncc(N3CCNCC3)cn2)c1` [A19, 6-(3,5-difluorophenyl)-2-[3-(5-piperazin-1-ylpyrimidin-2-yl)benzyl]-2H-pyridazin-3-one] registered an IC50 of 0.001 to 1 µM. Molecule `CN(C)CCCCNC(=O)c1cnc(-c2cccc(Cn3nc(-c4cc(F)c(F)c(F)c4)ccc3=O)c2)nc1` [A35] returned an IC50 of 0.001 to 1 µM. On the same count and under the same terms, the value for `CN1CCN(c2cnc(-c3cccc(Cn4nc(-c5cc(F)cc(F)c5)ccc4=O)c3)nc2)CC1` [A18, 6-(3,5-difluorophenyl)-2-{3-[5-(4-methylpiperazin-1-yl)pyrimidin-2-yl]-benzyl}-2H-pyridazin-3-one] was 0.001 to 1 µM; that for `N#Cc1cccc(-c2ccc(=O)n(Cc3cccc(-c4ncc(-c5cnn(CCN6CCCC6)c5)cn4)c3)n2)c1` [A168, 3-[6-oxo-1-(3-{5-[1-(2-pyrrolidin-1-ylethyl)-1H-pyrazol-4-yl]pyrimidin-2-yl}benzyl)-1,6-dihydropyridazin-3-yl]-benzonitrile] was 0.001 to 1 µM.

Another assay deals with T1, Met kinase. The assay is described as follows: Flashplate method (Met kinase). It is filed as biochemical. The arrangement: 6His (N); purchased Upstate 14-526; host or cells: Sf21 insect cells (S. frugiperda), baculovirus. To be noted: Met kinase inhibition, enzyme assay. The method, then:
The test plates used are 96-well Flashplate^R microtitre plates from Perkin Elmer (Cat. No. SMP200).
The full value used is the inhibitor-free kinase reaction. This should be approximately in the range 6000-9000 cpm. The pharmacological zero value used is staurosporin in a final concentration of 0.1 mM. The inhibitory values (IC50) are determined using the RS1_MTS program.
Kinase reaction conditions per well: • 30 μl of assay buffer • 10 μl of substance to be tested in assay buffer with 10% of DMSO • 10 μl of ATP (final concentration 1 μM cold, 0.35 μCi of ^33P-ATP) • 50 μl of Met kinase/substrate mixture in assay buffer; (10 ng of enzyme/well, 50 ng of pAGLT/well)
Target sequence in this assay (P08581 974-1390 limits assumed): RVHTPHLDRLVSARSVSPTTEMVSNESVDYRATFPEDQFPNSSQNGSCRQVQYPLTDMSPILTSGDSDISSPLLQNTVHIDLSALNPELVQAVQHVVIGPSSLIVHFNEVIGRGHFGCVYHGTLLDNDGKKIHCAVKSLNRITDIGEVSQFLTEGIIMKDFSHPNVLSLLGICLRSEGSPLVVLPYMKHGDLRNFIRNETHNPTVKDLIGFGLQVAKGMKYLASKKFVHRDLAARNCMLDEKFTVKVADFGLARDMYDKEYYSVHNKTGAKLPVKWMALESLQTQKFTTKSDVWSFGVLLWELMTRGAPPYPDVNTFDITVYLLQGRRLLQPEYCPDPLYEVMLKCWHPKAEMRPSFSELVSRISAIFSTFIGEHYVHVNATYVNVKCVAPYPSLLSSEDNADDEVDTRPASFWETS
In turn, `O=C1OCCCN1c1cccc(Cn2nc(-c3cc(F)cc(F)c3)ccc2=O)c1` [A6, 3-{3-[3-(3,5-difluorophenyl)-6-oxo-6H-pyridazin-1-ylmethyl]phenyl}-1,3-oxazinan-2-one] came in with a 50% inhibitory concentration (IC50) of 0.001 to 1 µM. Same read-out and setting: the value for `Cc1ccc(=O)n(-c2cccc(Cn3nc(-c4cc(F)cc(F)c4)ccc3=O)c2)n1` [A8, 1-{3-[3-(3,5-difluorophenyl)-6-oxo-6H-pyridazin-1-yl-methyl]phenyl}-3-methyl-6H-pyridazin-6-one] was 0.001 to 1 µM; that for `Cc1cnc(-c2cccc(Cn3nc(-c4cc(F)c(F)c(F)c4)ccc3=O)c2)nc1` [A1, 2-[3-(5-methylpyrimidin-2-yl)benzyl]-6-(3,4,5-trifluorophenyl)-2H-pyridazin-3-one] was 0.001 to 1 µM.

The record behind these values is patent US9284300B2, “Pyridazinone derivatives” (Merck Patent GmbH, priority 2007, dated 2016).
